According to ChEMBL document CHEMBL1201862, “PubChem BioAssay data set” (2004):
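These data come from cells grown in 96-well plates and exposed to compound for 48 hours at five concentrations. GI50 is the concentration that inhibits growth by half.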 Calls of active or inactive are those of the source. Rule as the data show it: active = GI50 up to about 1.1 µM and inactive = higher.

Key:
Test in all cases: NCI tumour cell line growth inhibition, 48 h
SK-MEL-28 = system: SK-MEL-28
SF-268 = system: SF-268
A498 = system: A498
OVCAR-4 = system: OVCAR-4
HCC 2998 = system: HCC 2998
SNB-19 = system: SNB-19
SK-OV-3 = system: SK-OV-3
NCI-H23 = system: NCI-H23
NCI-H460 = system: NCI-H460
HCT-116 = system: HCT-116
IGROV-1 = system: IGROV-1
MDA-MB-231 = system: MDA-MB-231
U-251 = system: U-251
Malme-3M = system: Malme-3M
MOLT-4 = system: MOLT-4
MDA-N = system: MDA-N
SW-620 = system: SW-620
OVCAR-5 = system: OVCAR-5
CCRF-CEM = system: CCRF-CEM

| Structure (SMILES) | GI50 (SK-MEL-28) | GI50 (SF-268) | GI50 (A498) | GI50 (OVCAR-4) | GI50 (HCC 2998) | GI50 (SNB-19) | GI50 (SK-OV-3) | GI50 (NCI-H23) | GI50 (NCI-H460) | GI50 (HCT-116) | GI50 (IGROV-1) | GI50 (MDA-MB-231) | GI50 (U-251) | GI50 (Malme-3M) | GI50 (MOLT-4) | GI50 (MDA-N) | GI50 (SW-620) | GI50 (OVCAR-5) | GI50 (CCRF-CEM) |
| --- | --- | --- | --- | --- | --- | --- | --- | --- | --- | --- | --- | --- | --- | --- | --- | --- | --- | --- | --- |
| O=C(CCN1CCCC1)Nc1ccc2sc3ccccc3c(=O)c2n1 | 14.3 µM (inactive) | 17.2 µM (inactive) | 17.8 µM (inactive) | 13.2 µM (inactive) | 12.3 µM (inactive) | 13.1 µM (inactive) | 7.23 µM (inactive) | 13.1 µM (inactive) | > 10 µM (inactive) | 11.5 µM (inactive) | 15.2 µM (inactive) | 13.3 µM (inactive) | 12.9 µM (inactive) | 13.1 µM (inactive) | 4.72 µM (inactive) | 13.4 µM (inactive) | 12.4 µM (inactive) | 12.9 µM (inactive) | 10.2 µM (inactive) |
| COc1cc(N(CCC#N)CCC#N)ccc1/C=C1\SC(=S)NC1=O | > 100 µM (inactive) | > 100 µM (inactive) | > 100 µM (inactive) | > 100 µM (inactive) | > 100 µM (inactive) | > 100 µM (inactive) | > 100 µM (inactive) | > 100 µM (inactive) | > 100 µM (inactive) | > 100 µM (inactive) | > 100 µM (inactive) | > 100 µM (inactive) | > 100 µM (inactive) | > 100 µM (inactive) | > 100 µM (inactive) | > 100 µM (inactive) | > 100 µM (inactive) | > 100 µM (inactive) | > 100 µM (inactive) |
| Cc1cccc(/C=N/NC(=S)NCCc2ccccn2)n1 | 56.1 µM (inactive) | 19.6 µM (inactive) | 34 µM (inactive) | 42.2 µM (inactive) | 42.2 µM (inactive) | 37.1 µM (inactive) | 14.1 µM (inactive) | 26.6 µM (inactive) | 14.9 µM (inactive) | 31.8 µM (inactive) | 20.1 µM (inactive) | 39 µM (inactive) | 20.4 µM (inactive) | 47.6 µM (inactive) | 18.9 µM (inactive) | 60.8 µM (inactive) | 42.5 µM (inactive) | 46.7 µM (inactive) | 9.89 µM (inactive) |
| CC(C)C(=O)Oc1cc2c(=O)oc3c(OC(=O)C(C)C)c(OC(=O)C(C)C)cc4c(=O)oc(c1OC(=O)C(C)C)c2c34 | > 100 µM (inactive) | > 100 µM (inactive) | > 100 µM (inactive) | > 100 µM (inactive) | > 100 µM (inactive) | > 100 µM (inactive) | > 100 µM (inactive) | > 100 µM (inactive) | > 100 µM (inactive) | > 100 µM (inactive) | > 100 µM (inactive) | > 100 µM (inactive) | > 100 µM (inactive) | > 100 µM (inactive) | > 100 µM (inactive) | > 100 µM (inactive) | > 100 µM (inactive) | > 100 µM (inactive) | > 100 µM (inactive) |
| COc1ccc(-c2oc3c(OC)c(OC)c(OC)c(O)c3c(=O)c2OC)cc1OC | 32.2 µM (inactive) | 9.33 µM (inactive) | 19.9 µM (inactive) | 26.5 µM (inactive) | 19.3 µM (inactive) | 63.4 µM (inactive) | 8.2 µM (inactive) | 31.1 µM (inactive) | 17.8 µM (inactive) | 24.9 µM (inactive) | 3.15 µM (inactive) | 22.2 µM (inactive) | 27.7 µM (inactive) | 46.8 µM (inactive) | 15.5 µM (inactive) | 10.3 µM (inactive) | 20.8 µM (inactive) | 35.6 µM (inactive) | 16.9 µM (inactive) |
| C/C(=N\[N+](C)(C)C)c1ccc(C)c(C)c1 | > 10 µM (inactive) | > 10 µM (inactive) | 22.3 µM (inactive) | 88.1 µM (inactive) | > 10 µM (inactive) | 42.9 µM (inactive) | 77.6 µM (inactive) | 62.5 µM (inactive) | 29.4 µM (inactive) | 76.9 µM (inactive) | > 100 µM (inactive) | > 10 µM (inactive) | 39.4 µM (inactive) | > 10 µM (inactive) | > 10 µM (inactive) | 45.8 µM (inactive) | 51.3 µM (inactive) | 42.4 µM (inactive) | 35.4 µM (inactive) |
| Cc1c(S(=O)(=O)O)ccc(/N=N/c2c(O)c(C(=O)O)cc3ccccc23)c1Cl | > 100 µM (inactive) | > 100 µM (inactive) | > 100 µM (inactive) | > 100 µM (inactive) | > 100 µM (inactive) | > 100 µM (inactive) | > 100 µM (inactive) | > 100 µM (inactive) | > 100 µM (inactive) | > 100 µM (inactive) | > 100 µM (inactive) | > 49.8 µM (inactive) | > 92.5 µM (inactive) | > 63.5 µM (inactive) | > 100 µM (inactive) | > 100 µM (inactive) | > 100 µM (inactive) | > 100 µM (inactive) | > 100 µM (inactive) |
| C[C@@H]1O[C@@H](O[C@H]2CC[C@]3(C=O)[C@H]4CC[C@]5(C)[C@@H](C6=CC(=O)OC6)CC[C@]5(O)[C@@H]4CC[C@]3(O)C2)[C@H](O)[C@H](O)[C@H]1O [CONVALLATOXIN] | 6.4e-05 µM (active) | 1.21e-05 µM (active) | 5.74e-05 µM (active) | 7.28e-06 µM (active) | < 0.01 µM (active) | 0.0178 µM (active) | 4.37e-05 µM (active) | 9.93e-06 µM (active) | 8.47e-06 µM (active) | < 0.01 µM (active) | < 0.01 µM (active) | 0.00013 µM (active) | 5.58e-05 µM (active) | 3.71e-05 µM (active) | 6.01e-06 µM (active) | 4.3e-05 µM (active) | 3.93e-05 µM (active) | 4.24e-05 µM (active) | < 0.01 µM (active) |
| O=[N+]([O-])c1ccc2nc(Cl)n[n+]([O-])c2c1 | 18.3 µM (inactive) | 14.1 µM (inactive) | 0.65 µM (active) | 12.2 µM (inactive) | 16.3 µM (inactive) | 25.5 µM (inactive) | 17.5 µM (inactive) | 15.3 µM (inactive) | 20.3 µM (inactive) | 12.7 µM (inactive) | 10.3 µM (inactive) | 11.7 µM (inactive) | 16.6 µM (inactive) | 15.9 µM (inactive) | 1.15 µM (inactive) | 11.6 µM (inactive) | 12.4 µM (inactive) | 17 µM (inactive) | 1.06 µM (active) |
| Clc1ccc(C2NN=C3c4ccccc4OCC32)cc1 (stereo unspecified) | 15.3 µM (inactive) | 5.36 µM (inactive) | 18.2 µM (inactive) | 13.4 µM (inactive) | 2.62 µM (inactive) | 5.42 µM (inactive) | 5.82 µM (inactive) | 4.39 µM (inactive) | 4.3 µM (inactive) | 2.81 µM (inactive) | 3.2 µM (inactive) | 2.39 µM (inactive) | 4.09 µM (inactive) | 3.15 µM (inactive) | 4.43 µM (inactive) | 0.83 µM (active) | 3.64 µM (inactive) | 8.87 µM (inactive) | 4.29 µM (inactive) |
| Cc1c(C)c(C)c(-n2c(=O)n(C)c(=O)n2-c2cc(C(C)(C)C)cc(C(C)(C)C)c2O)c(C)c1C | 13.7 µM (inactive) | 12.4 µM (inactive) | 13.1 µM (inactive) | 7.28 µM (inactive) | 9.93 µM (inactive) | 5.74 µM (inactive) | 12.4 µM (inactive) | 7.91 µM (inactive) | 11.4 µM (inactive) | 5.79 µM (inactive) | 10.1 µM (inactive) | 3.91 µM (inactive) | 6.95 µM (inactive) | 11.9 µM (inactive) | 4.18 µM (inactive) | 10.5 µM (inactive) | 13.6 µM (inactive) | 13.3 µM (inactive) | 8.13 µM (inactive) |
| [O-][S+]1SC(=S)C2C=CC=CC21 (stereo unspecified) | > 100 µM (inactive) | > 100 µM (inactive) | 93.1 µM (inactive) | > 100 µM (inactive) | > 100 µM (inactive) | 48.4 µM (inactive) | > 100 µM (inactive) | > 100 µM (inactive) | 34 µM (inactive) | 85.5 µM (inactive) | 49.1 µM (inactive) | > 100 µM (inactive) | > 100 µM (inactive) | 95.9 µM (inactive) | > 100 µM (inactive) | 40.8 µM (inactive) | > 100 µM (inactive) | > 100 µM (inactive) | 2.37 µM (inactive) |
| N#Cc1c(N)nc2[nH]nc(N)c2c1-c1ccc(Cl)cc1 | 6.95 µM (inactive) | 5.11 µM (inactive) | 0.656 µM (active) | 8.95 µM (inactive) | 10 µM (inactive) | 29.2 µM (inactive) | 2.56 µM (inactive) | 3.76 µM (inactive) | 3.15 µM (inactive) | 5.52 µM (inactive) | 1.84 µM (inactive) | 2.65 µM (inactive) | 19.3 µM (inactive) | 2.1 µM (inactive) | 2.54 µM (inactive) | 4.22 µM (inactive) | 13.8 µM (inactive) | 11.9 µM (inactive) | 4.95 µM (inactive) |
| CC1=CC[C@H](C(C)C)C(C(O)[C@@H](C)O[Si](c2ccccc2)(c2ccccc2)C(C)(C)C)C1=O (stereo partly specified) | 32.3 µM (inactive) | 21.1 µM (inactive) | 18.6 µM (inactive) | 15.5 µM (inactive) | 12.7 µM (inactive) | 17.3 µM (inactive) | 28.5 µM (inactive) | 16.6 µM (inactive) | 14.8 µM (inactive) | 10.6 µM (inactive) | 24.2 µM (inactive) | 15.5 µM (inactive) | 15.8 µM (inactive) | 28.8 µM (inactive) | 7.36 µM (inactive) | 21.2 µM (inactive) | 18.9 µM (inactive) | 18.9 µM (inactive) | 19.5 µM (inactive) |
